Key:
primary cortical neurons [1] = experiment: Immunocytochemistry of surface associated and internalized Aβ; type: cell-based, mouse; conditions: Aβ 500 nM, 4 h; antibody 82E1; ~200 neurons, N = 4
primary cortical neurons [2] = experiment: Subcellular fractionation by differential centrifugation and Aβ ELISA; type: cell-based, mouse; conditions: Aβ 500 nM, 4 h; for Aβ levels in the isolated membrane fraction (16,100 g pellet): ELISA 82E1, n = 6, N = 3
Description: [Worded in the source for another cell line; used here, by the source, with some conditions changed.] SH-SY5Y cells seeded on D1, were treated with Aβ variants (1 μM) on D3 in DMEM/F-12 media without serum and antibiotics. Control treatment included treatment with equal volume of 10 mM NaOH solution used for preparing the Aβ stock solutions, in respective cell culture medium. SH-SY5Y cells, after 16 h of transient expression of the reporter constructs, were treated with different Aβ variants, autophagy modulator substrates and respective controls in DMEM/F-12, FCS^− PS^− media for the mentioned time points. After treatment, cells were washed twice with PBS and with 0.025% trypsin-EDTA in PBS to get rid of cell bound Aβ, followed by subsequent washings with PBS again. Cells were either collected by scraping using a cell-scraper or fixed with 4% PFA-PBS for 15 min at RT, for further immunocytochemistry experiments. Collected treatment media was centrifuged at 1000 g for 5 min, pellet discarded and supernatant frozen at −20°C until further usage.
Cells were collected by scraping and mechanically homogenized in hypotonic D buffer (10 mM Tris-HCl, pH 7.4, 10 mM NaCl, 0.1 mM EGTA, 25 mM glycerol 2-phosphate, 1 mM DTT) containing protease and phosphatase inhibitors by repeated suspension through a 23 G × 1” needle. Post-nuclear supernatant (PNS) was collected by centrifugation of the mechanically homogenized cellular material at 2,000 g for 5 min. The pellet was the nuclear material. […] The nuclear fraction was the supernatant collected after centrifugation at 16,100 g for 15 min. The PNS collected from the first step was centrifuged at 16,100 g for 60 min, and supernatant was used as the crude cytosolic fraction. The pellet contained the membrane materials, which were re-homogenized in hypotonic D buffer and again centrifuged at 16,100 g for 60 min. The supernatant was discarded, pellet was resuspended in STEN-lysis buffer (20 mM Tris-HCl, pH 7.5, 150 mM NaCl, 1 mM EDTA, 1 mM EGTA, 1% Triton X-100, 2.5 mM sodium pyrophosphate [Sigma Aldrich, P1835], 1 mM β-glycerophosphate [Sigma Aldrich, G9422]) containing protease and phosphatase inhibitors, and the membrane fraction was the supernatant collected after centrifugation at 16,100 g for 15 min. The crude cytosolic fraction was then further fractionated at 100,000 g for 70 min at 4°C under vacuum. The resultant supernatant was the soluble cytosolic fraction. The pellet was resuspended in STEN lysis buffer and centrifuged at 16,100 g for 15 min. The resultant supernanant represented the insoluble cytosolic fraction.
Wells were further tapped dry and incubated with 4G8-biotin/82E1-biotin detection antibodies (0.05–0.1 μg/well) at RT for 2 h followed by subsequent washing and incubation with streptavidin conjugated HRP complex (1:5000) for another 2 h. Wells were then washed thoroughly four times and filled with 100 µl of 3,3,5,5-tetramethylbenzidine substrate (TMB; ThermoFisher Scientific, N301) in each well and incubated at 25°C until sufficient blue color developed (time ranged from 2–15 min depending on the different capture antibodies used in the experiment). 100 µl of stop solution (4 M H2SO4) was added to each well. Absorbance values from each well were read at a Tecan plate reader at a wavelength of 450 nm and background measurement at 620 nm. Multiple readings were recorded for a single well and averaged. In each experiment, each sample was analyzed in technical duplicate/triplicate wells as indicated and average values from an independent experiment are presented (Figures 1E, 3G, SA-D and Table S2).

SH-SY5Y cells = experiment: Lysosomal acidification assay using LysoSensor-dextran; type: cell-based, human; conditions: Aβ 1 µM, within 24 h of incubation; ΔpH = pHfinal (t = 24 h) − pHinitial (control, t = 0 h); n = 12, N = 4
Description: Cells were cultured on coverslips and treated with Aβ variants (primary cortical neurons, DIV14–500 nM, 4 h; SH-SY5Y cells, D3–1 μM, 24 h) in presence of 50 µM LysoSensor-dextran probe (ThermoFisher Scientific, L7545) in cell culture media for the indicated time points. Cells were washed and stained as described before. For fluorescence analyses, cells were cultured and treated in a 96-well plate for the indicated time points, and washed thrice with PBS to remove the excess probe. Fluorescence intensity analysis of blue and green channel was done using a multiplate reader (Tecan Life Sciences, Switzerland). […] was computed from the fluorescence values measured at λEx 340 nm and λEm 450 nm (blue channel) and λEm 535 nm (green channel), respectively. Values were normalized to absorbance at 340 nm and protein content per well, and represented as change of LysoSensor acidification with respect to control cells (Figure 7B and S7C-D). pH values were computed by preparing a standard curve, wherein cells treated with 1 µM nigericin (Sigma Aldrich, N7143) and 1 µM monensin (Sigma Aldrich, M5273) were incubated with media of pH 4.5, 7.5 and 9.2. As independent controls, 100 nM bafilomycin A1 (Sigma Aldrich, 553210), 1 mM NH4Cl- and 10 µM rapamycin (Cayman Chemicals, 19438)-treated cells were also used as independent controls to validate the measurements. Change in LysoSensor pH (ΔpH) for Aβ treated cells was quantified using the formula ΔpH = pHfinal (control/Aβ, t = 24 h) − pHinitial (control, t = 0 h). Box plots (Figure 7C and S7E) depict the overall distribution of data, and each data point represents average values from an independent experiment; n = 12, N = 4.

| Substance | Fluorescence intensities of Aβ signals in unpermeabilized and permeabilized cells (binding to neuronal membranes and intraneuronal accumulation) (primary cortical neurons [1]) | Aβ levels in the isolated membrane fraction (16,100 g pellet) (primary cortical neurons [2]) | Decrease in the pH (LysoSensor response, ΔpH) (SH-SY5Y cells) | Aβ levels in the total cytosolic fraction (supernatant after 16,100 g spin) (primary cortical neurons [2]; ELISA, followed by p-Ser8Aβ and npAβ) | Aβ levels in the 100,000 g pellet (insoluble cytosolic fraction) (primary cortical neurons [2]; ELISA, compared to npAβ and p-Ser26Aβ) | Aβ levels in the 100,000 g supernatant (soluble cytosolic fraction) (primary cortical neurons [2]; ELISA, compared to p-Ser26Aβ) |
| --- | --- | --- | --- | --- | --- | --- |
| non-phosphorylated amyloid-β [npAβ, reference compound] | least | significantly lower | 0.13 ± 0.11 units |  |  |  |
| amyloid-β phosphorylated at serine residue 26 [p-Ser26Aβ] | followed by p-Ser26Aβ | significantly lower | 0.17 ± 0.12 units | highest levels |  |  |
| amyloid-β phosphorylated at serine residue 8 [p-Ser8Aβ] | highest fluorescence intensities | highest levels | did not show any change |  | significantly higher | significantly lower |

From article PMC10761119, “Phosphorylation-state dependent intraneuronal sorting of Aβ differentially impairs autophagy and the endo-lysosomal system” (Autophagy, 2023)
